Patent US20240209028A1, “CNP COMPOUNDS” (priority 2022, published 2024)
Starred links: 1 amine or outer side, 2 acyl side, 3 side chain; linkers in the order of their positions; H or OH if unused. Positions of bridges follow the written chain, without caps; N, C: chain ends. Residues, ends and D or L forms follow the SMILES beside them. *: point of attachment. C18 diacid = O=C(O)CCCCCCCCCCCCCCCCC(=O)*; γGlu = O=C(O)[C@H](CCC(=O)[*:2])N[*:1]; AEEA = NCCOCCOCC(=O)O

Legend:
[1] = High-Molecular-Weight-Protein (HMWP) formation by SEC-UPLC; format: physicochemical; conditions: increase over two weeks at 37° C., pH 4.0
Summary of the method: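 Formulations at pH 4.0 or 6.5 incubated quiescently for two weeks at 37 °C; HMWP (peaks eluting before monomer, % of total peptide area) measured by SEC-UPLC, pH 2.4 mobile phase with 50% isopropanol, 50 °C, UV 215 nm. Value is HMWP increase, normalized to two weeks if needed.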

[2] = PK of CNP compounds after i.v. and s.c. administration to rats; conditions: male, Sprague Dawley, in vivo, iv, rat, i.v., about 100 nmol/kg
Summary of the method: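 Plasma exposure was quantified by protein precipitation and turboflow LC-MS/MS in SRM mode. Rats received either 100 nmol/kg intravenously or 300 nmol/kg subcutaneously, with sublingual blood taken at baseline and at points up to 72 h. Per-animal NCA gave clearance as Dose/AUCinf, and results are averaged over 4-6 animals.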

SMILES: CC[C@H](C)[C@@H]1NC(=O)[C@H](CCCNC(=N)N)NC(=O)[C@H](CC(=O)O)NC(=O)[C@H](CC(C)C)NC(=O)[C@@H]2CCCN2C(=O)[C@H](CC(C)C)NC(=O)CNC(=O)[C@H](Cc2ccccc2)NC(=O)[C@@H](NC(=O)CNC(=O)[C@H](CCC(N)=O)NC(=O)[C@H](CO)NC(=O)[C@H](CO)NC(=O)CNC(=O)[C@H](Cc2c[nH]cn2)NC(=O)[C@H](Cc2c[nH]cn2)NC(=O)[C@H](CCC(N)=O)NC(=O)[C@H](C)NC(=O)CNC(=O)[C@H](Cc2c[nH]cn2)NC(=O)[C@H](Cc2ccc(O)cc2)NC(=O)[C@H](CCCCN)NC(=O)[C@H](Cc2c[nH]cn2)NC(=O)[C@H](C)NC(=O)[C@H](CCC(N)=O)NC(=O)[C@@H]2CCCN2C(=O)[C@H](Cc2c[nH]cn2)NC(=O)[C@H](CCC(=O)O)NC(=O)[C@H](CCC(N)=O)NC(=O)COCCOCCNC(=O)COCCOCCNC(=O)CC[C@H](NC(=O)CCCCCCCCCCCCCCCCC(=O)O)C(=O)O)CSSC[C@@H](C(=O)O)NC(=O)CNC(=O)[C@H](CC(C)C)NC(=O)CNC(=O)[C@H](CO)NC(=O)[C@H](CC(C)C)NC(=O)[C@H](CO)NC(=O)CNC1=O [compound 1381] ({C18 diacid-γGlu-AEEA-AEEA}-QEHPQAHKYHGAQHHGSSQGCFGLPLDRIGSLSGLGC-OH; disulfide 21-37)
- 2-Week HMWP formation at pH 4.0 (%), % relative to total peak area [1]: 0.84%
- clearance ([2]; read-out: Cl (L/hr/kg), i.v. administration (converted)): 0.00382 L/h/kg
- half-life ([2]; read-out: T½ (hr), i.v. administration (converted)): 15.2 h
